# From patent publication US20130289108A1, “Palladium-Copper Catalysts for the Homogeneous Selective Oxidation of Thiol Groups” (priority 2011, published 2013)
# Marks after values point to notes of the source that are not given here.
# Tested on: male rats with cytopenia
# Assay: Hemostimulating activity: general analysis of the blood of male rats with cyclophosphan cytopenia
# Type: in vivo
# [1] = 3 days after cyclophosphan 120 mg/kg
# [2] = 7 days after cyclophosphan 120 mg/kg
# [3] = 14 days after cyclophosphan 120 mg/kg
Structure (SMILES),Erythrocytes [1],Leucocytes [1],Lymphocytes [1] [%],Reticulocytes [1] [%],Segmented neutrophils [1] [%],Erythrocytes [2],Leucocytes [2],Lymphocytes [2] [%],Reticulocytes [2] [%],Segmented neutrophils [2] [%],Erythrocytes [3],Leucocytes [3],Lymphocytes [3] [%],Reticulocytes [3] [%],Segmented neutrophils [3] [%]
"O=C([O-])[O-].[Li+].[Li+] [preparation 3, lithium carbonate]",3.4 ± 0.29 10^12/l,3.22 ± 0.11* 10^9/l,49.7 ± 1.6,1.1 ± 0.1,31 ± 1.7,3.4 ± 0.29 10^12/l,3.22 ± 0.11* 10^9/l,49.7 ± 1.6,1.1 ± 0.1,31 ± 1.7,4.7 ± 0.27 10^12/l,5.2 ± 0.26** 10^9/l,70.3 ± 0.9,1.3 ± 0.3,15.0 ± 2.6
"CC(=O)N[C@@H](CSSC[C@H](NC(C)=O)C(=O)O)C(=O)O [preparation 4, N-acetyl-L-cysteine disulfide]",3.2 ± 0.33 10^12/l,3.47 ± 0.08* 10^9/l,52.5 ± 1.3,–,31 ± 1.8,3.2 ± 0.33 10^12/l,3.47 ± 0.08* 10^9/l,52.5 ± 1.3,–,31 ± 1.8,4.1 ± 0.21 10^12/l,5.1 ± 0.22** 10^9/l,71.0 ± 1.6,1.2 ± 0.4,13.6 ± 1.9
